Drawing on BindingDB's records for doi:10.1016/j.bmcl.2012.11.092 (Vanderbilt University Medical Center, 2012), this text covers EC50 for one molecule.

For the test, the target named is T1, Muscarinic acetylcholine receptor M1 (Homo sapiens, UniProt P11229).
T1 sequence (P11229 whole entry): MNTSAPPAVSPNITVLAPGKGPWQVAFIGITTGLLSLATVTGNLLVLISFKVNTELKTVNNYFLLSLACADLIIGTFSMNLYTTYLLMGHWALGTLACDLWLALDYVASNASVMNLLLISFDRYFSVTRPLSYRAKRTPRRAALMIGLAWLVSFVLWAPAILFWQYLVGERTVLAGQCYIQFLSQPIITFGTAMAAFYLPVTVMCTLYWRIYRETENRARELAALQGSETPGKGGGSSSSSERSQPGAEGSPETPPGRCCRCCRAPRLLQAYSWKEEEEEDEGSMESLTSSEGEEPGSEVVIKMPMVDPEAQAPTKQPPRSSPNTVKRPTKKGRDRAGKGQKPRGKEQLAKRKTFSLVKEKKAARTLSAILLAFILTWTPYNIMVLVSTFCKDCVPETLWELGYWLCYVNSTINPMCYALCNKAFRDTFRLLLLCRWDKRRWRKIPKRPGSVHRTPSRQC
Kind of test: Positive allosteric modulator activity at human muscarinic M1 receptor by calcium mobilization assay.

Values joined by “and” are separate entries in the source; they are usually repeats but may differ in a detail not shown here. Equal values may be shown once.

On to `Cn1cc(-c2ccc(CN3C(=O)C(O)(C(F)(F)F)c4ccccc43)c(F)c2)cn1` (stereo unspecified), for which the EC50 is 3.31 µM and 3.3 µM.
